Data: patent US9982234B2, “Culture medium composition for improving regenerative capacity of stem cells, and stem cell culturing method using same” (R BIO CO., LTD., priority 2013, dated 2018)

Legend:
Type in all cases: cell-based, human
[1] = test system: adipose mesenchymal stem cells; assay: Telomerase activity of stem cells (Telo TAGGG Telomerase PCR ELISA kit); parameters: telomerase activity (N = 3): unit not given here; conditions: for telomerase activity (N = 3): cells cultured to passage 3
Protocol: (§1) While the adipose mesenchymal stem cells isolated in Example 1 was cultured in each of the media, the adipose mesenchymal stem cells were collected at different days of culture, and the viability, cell size and CPDL of the cells were measured. Also, telomerase activity was measured for the cells subcultured to passage 3. The Alnus japonica extract in medium 11 was prepared in the following manner.
Adipose mesenchymal stem cells isolated from persons in their 40s, 50s and 60s according to the method of Example 1 were cultured to passage 3 in each of the media shown in Table 4 above, and then the telomerase activity of the stem cells was measured using Telo TAGGG Telomerase PCR ELISA kit (Roche).

[2] = test system: adipose mesenchymal stem cells; assay: Morphology of stem cells under phase contrast microscope; conditions: 4 days of culture; result in words
Protocol: (§2) The adipose mesenchymal stem cells of three persons, obtained by subculture to passage 3 in Example 1, were seeded into each of the following media and cultured for 4 days. During 4 days of culture, the morphology of the cells was observed. In addition, the size, viability and CDPL (cell population doubling level) of the cells were measured and expressed as mean values.
The morphology of the stem cells was observed under a phase contrast microscope and photographed (see FIG. 1).

[3] = test system: adipose mesenchymal stem cells; assay: Viability of stem cells (Luna automated cell counter); parameters: viability of stem cells: unit not given here; conditions: for effect on the viability of the cells: 4 days of culture, result in words; for viability of stem cells: mean n=3
Protocol: as §2, §1
The viability of the stem cells was measured using Luna™ automated cell counter (n=3).

[4] = test system: adipose mesenchymal stem cells; assay: Size of stem cells (Luna automated cell counter); conditions: for effect on the size of the cells: 4 days of culture, result in words; for size of stem cells: mean n=3
Protocol: as §2, §1
The adipose mesenchymal stem cells isolated in Example 1 were seeded in each of the media, and then treated with trypsin at different days of culture. Next, the adipose mesenchymal stem cells were collected, and the size (μm) of the stem cells was measured using Luna™ automated cell counter (n=3).

[5] = test system: adipose mesenchymal stem cells; assay: Cell population doubling level (CPDL) of stem cells
Protocol: as §2, §1
The cell population doubling level (CPDL) of the stem cells was calculated using the following equation: CPDL=[…], wherein Nfinal: the number of finally obtained cells; and Ninitial: the number of initially seeded cells.

[6] = Day 1 post seeding, 20 nM in M9 medium
[7] = Day 1 post seeding, 50 nM in M9 medium
[8] = Day 2 post seeding, 20 nM in M9 medium
[9] = Day 2 post seeding, 50 nM in M9 medium
[10] = Day 3 post seeding, 20 nM in M9 medium
[11] = Day 3 post seeding, 50 nM in M9 medium
[12] = Day 4 post seeding, 20 nM in M9 medium
[13] = Day 4 post seeding, 50 nM in M9 medium

For `CC(C)(C)c1cc(O)ccc1O` [TBH-Q, T-BHQ], the “telomerase activity (N = 3)” value ([1]; 5 μM in M9 medium) was 2.524 and the “telomerase activity (N = 3)” value ([1]; 20 μM in M9 medium) was 2.838.

For apelin, the “effect on the morphology of the cells” value [2] was “no significant effect on the morphology”, the “effect on the viability of the cells” value [3] was “no significant effect on the viability” and the “viability of stem cells” value [3, 6] was 97.2. For the same molecule, the “viability of stem cells” value [3, 7] was 91.7, the “viability of stem cells” value [3, 8] was 98.9 and the “viability of stem cells” value [3, 9] was 100. The “viability of stem cells” value [3, 10] was 98.8, the “viability of stem cells” value [3, 11] was 98.8 and the “viability of stem cells” value [3, 12] was 99.4. The “viability of stem cells” value [3, 13] was 99.2, the “effect on the size of the cells” value [4] was “no significant effect on the size” and the “size of stem cells” value [4, 6] was 19.0 μm. For the same molecule, the “size of stem cells” value [4, 7] was 18.6 μm, the “size of stem cells” value [4, 8] was 18.3 μm and the “size of stem cells” value [4, 9] was 15.6 μm. For the same molecule, the “size of stem cells” value [4, 10] was 18.2 μm, the “size of stem cells” value [4, 11] was 18.0 μm and the “size of stem cells” value [4, 12] was 18.5 μm. The “size of stem cells” value [4, 13] was 17.9 μm, the “cell population doubling level (CPDL)” value ([5]; Day 0 post seeding, 20 nM in M9 medium) was 0.00 and the “cell population doubling level (CPDL)” value ([5]; Day 0 post seeding, 50 nM in M9 medium) was 0.00. For the same molecule, the “cell population doubling level (CPDL)” value [5, 6] was 0.89, the “cell population doubling level (CPDL)” value [5, 7] was 0.56 and the “cell population doubling level (CPDL)” value [5, 8] was 2.84. For the same molecule, the “cell population doubling level (CPDL)” value [5, 9] was 1.65, the “cell population doubling level (CPDL)” value [5, 10] was 6.54 and the “cell population doubling level (CPDL)” value [5, 11] was 5.11. The “cell population doubling level (CPDL)” value [5, 12] was 9.28, the “cell population doubling level (CPDL)” value [5, 13] was 8.20 and the ability to proliferate ([5]; cultured in medium containing the substance, result in words) was “proliferation ability efficiently increased”. For the same molecule, the “telomerase activity (N = 3)” value ([1]; 5 nM in M9 medium) was 2.838, the “telomerase activity (N = 3)” value ([1]; 20 nM in M9 medium) was 3.068 and the “telomerase activity compared between media” value ([1]; 20 nM, passage 3, result in words) was “highest telomerase activity”.

In the case of `Oc1ccc(C=Cc2cc(O)cc(O)c2)cc1` [Resveratrol], the “telomerase activity (N = 3)” value ([1]; 1 μM in M9 medium) is reported as 2.042 and the “telomerase activity (N = 3)” value ([1]; 2 μM in M9 medium) is reported as 1.654.

In the case of `Cc1c(-c2cnccn2)ssc1=S` [Oltipraz, oltipraz], the “telomerase activity (N = 3)” value ([1]; 7 μM in M9 medium) is reported as 1.968 and the “telomerase activity (N = 3)” value ([1]; 10 μM in M9 medium) is reported as 2.137.

For `COC1=C(OC)C(=O)C(C/C=C(\C)CC/C=C(\C)CC/C=C(\C)CC/C=C(\C)CC/C=C(\C)CC/C=C(\C)CC/C=C(\C)CC/C=C(\C)CC/C=C(\C)CCC=C(C)C)=C(C)C1=O` [Coenzyme Q10, coenzyme Q-10], the “effect on the morphology of the cells” value [2] was “no significant effect on the morphology”, the “effect on the viability of the cells” value [3] was “no significant effect on the viability” and the “effect on the size of the cells” value [4] was “no significant effect on the size”. For the same molecule, the “telomerase activity (N = 3)” value ([1]; 5 μM in M9 medium) was 2.817 and the “telomerase activity (N = 3)” value ([1]; 10 μM in M9 medium) was 1.964.
